Assay results taken from ChEMBL document CHEMBL5113481, “Design, synthesis and biological evaluation of quinoline-2-carbonitrile-based hydroxamic acids as dual tubulin polymerization and histone deacetylases inhibitors” (Eur J Med Chem, 2022).
Converted amounts (≈) assume the structure as drawn. Values belong to the compound of their own block, whether it stands above or below them. The source made the active and inactive calls. The rule behind the calls is not given here.

Experiments:
HCT-116 = test: Antiproliferative activity against human HCT-116 cells after 72 hrs by CellTiter Glo assay; assay type: functional, cell-based; conditions: for GI50: time 72 hrs
NCI-N87 = test: Antiproliferative activity against human NCI-N87 cells after 72 hrs by CellTiter Glo assay; assay type: functional, cell-based; conditions: NCI-N87, 72 h
K562 [1] = test: Antiproliferative activity against human K562 cells after 72 hrs by CellTiter Glo assay; assay type: functional, cell-based; conditions: K562, 72 h
K562 [2] = test: Antiproliferative activity against imatinib-resistant human K562 cells over expressing MDR1 after 72 hrs by CellTiter Glo assay; assay type: functional, cell-based; conditions: K562, 72 h
MIA PaCa-2 = test: Antiproliferative activity against human MIA PaCa-2 cells after 72 hrs by CellTiter Glo assay; assay type: functional, cell-based; conditions: MIA PaCa-2, 72 h
SK-OV-3 = test: Antiproliferative activity against human SK-OV-3 cells after 72 hrs by CellTiter Glo assay; assay type: functional, cell-based; conditions: SK-OV-3, 72 h
A549 = test: Antiproliferative activity against human A549 cells after 72 hrs by CellTiter Glo assay; assay type: functional, cell-based; conditions: A549, 72 h
MCF7 = test: Antiproliferative activity against human MCF7 cells after 72 hrs by CellTiter Glo assay; assay type: functional, cell-based; conditions: MCF7, 72 h
MDA-MB-231 = test: Antiproliferative activity against human MDA-MB-231 cells after 72 hrs by CellTiter Glo assay; assay type: functional, cell-based; conditions: MDA-MB-231, 72 h
HT-29 [3] = test: Antiproliferative activity against human HT-29 cells after 72 hrs by CellTiter Glo assay; assay type: functional, cell-based; conditions: HT-29, 72 h
HT-29 [4] = test: Cell cycle arrest in human HT-29 cells assessed as accumulation of cells in G2/M phase at 0.1 to 5 nM measured after 24 hrs by PI staining based flow cytometry method; assay type: functional; conditions: dose 0.1-5 nM, DDE = dose-dependent effect
HT-29 [5] = test: Cell cycle arrest in human HT-29 cells assessed as accumulation of cells in G2/M phase at 5 nM measured after 24 hrs by PI staining based flow cytometry method; assay type: functional
HT-29 [6] = test: Induction of mitochondrial dysfunction in human HT-29 cells at 2 nM measured after 48 hrs by JC-1 staining based flow cytometry; assay type: functional, cell-based
[7] = target: T1, Protein deacetylase HDAC6 (Homo sapiens, UniProt Q9UBN7); test: Inhibition of HDAC6 (unknown origin) measured by fluorometry assay
T1 sequence (Q9UBN7 whole entry): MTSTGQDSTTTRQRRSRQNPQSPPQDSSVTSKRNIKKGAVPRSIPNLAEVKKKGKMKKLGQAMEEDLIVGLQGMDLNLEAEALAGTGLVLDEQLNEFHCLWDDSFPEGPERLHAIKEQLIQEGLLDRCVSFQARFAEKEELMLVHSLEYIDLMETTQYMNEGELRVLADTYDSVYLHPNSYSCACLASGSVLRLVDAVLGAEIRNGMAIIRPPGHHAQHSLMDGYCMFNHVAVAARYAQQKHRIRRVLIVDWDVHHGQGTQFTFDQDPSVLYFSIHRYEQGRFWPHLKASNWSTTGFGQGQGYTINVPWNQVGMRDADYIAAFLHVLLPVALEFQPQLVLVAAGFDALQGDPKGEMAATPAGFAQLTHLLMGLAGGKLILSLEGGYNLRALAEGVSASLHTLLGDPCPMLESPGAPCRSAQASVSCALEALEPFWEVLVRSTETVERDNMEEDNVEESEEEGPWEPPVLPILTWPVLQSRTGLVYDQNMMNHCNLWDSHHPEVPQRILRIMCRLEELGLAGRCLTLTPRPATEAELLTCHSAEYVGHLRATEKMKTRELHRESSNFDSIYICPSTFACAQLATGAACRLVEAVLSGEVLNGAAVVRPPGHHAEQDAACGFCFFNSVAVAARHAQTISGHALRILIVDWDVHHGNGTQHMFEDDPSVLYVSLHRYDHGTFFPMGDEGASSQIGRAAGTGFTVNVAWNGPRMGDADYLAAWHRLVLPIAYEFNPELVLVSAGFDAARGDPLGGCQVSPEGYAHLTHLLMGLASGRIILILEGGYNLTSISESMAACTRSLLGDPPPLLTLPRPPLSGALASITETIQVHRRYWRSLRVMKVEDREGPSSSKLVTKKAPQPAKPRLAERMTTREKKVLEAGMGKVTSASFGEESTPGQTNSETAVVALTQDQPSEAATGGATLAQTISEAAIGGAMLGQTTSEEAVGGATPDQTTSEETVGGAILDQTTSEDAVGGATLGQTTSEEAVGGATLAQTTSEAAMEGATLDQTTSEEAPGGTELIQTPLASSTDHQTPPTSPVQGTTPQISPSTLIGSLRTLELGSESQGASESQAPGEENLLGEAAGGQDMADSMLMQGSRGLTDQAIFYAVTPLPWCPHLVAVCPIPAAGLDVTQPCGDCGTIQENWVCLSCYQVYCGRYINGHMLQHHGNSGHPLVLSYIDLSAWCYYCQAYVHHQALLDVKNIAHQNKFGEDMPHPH

Histone deacetylase 8 = target: T2, Histone deacetylase 8 (Homo sapiens, UniProt Q9BY41); test: Inhibition of HDAC8 (unknown origin) measured by fluorometry assay
T2 sequence (Q9BY41 whole entry): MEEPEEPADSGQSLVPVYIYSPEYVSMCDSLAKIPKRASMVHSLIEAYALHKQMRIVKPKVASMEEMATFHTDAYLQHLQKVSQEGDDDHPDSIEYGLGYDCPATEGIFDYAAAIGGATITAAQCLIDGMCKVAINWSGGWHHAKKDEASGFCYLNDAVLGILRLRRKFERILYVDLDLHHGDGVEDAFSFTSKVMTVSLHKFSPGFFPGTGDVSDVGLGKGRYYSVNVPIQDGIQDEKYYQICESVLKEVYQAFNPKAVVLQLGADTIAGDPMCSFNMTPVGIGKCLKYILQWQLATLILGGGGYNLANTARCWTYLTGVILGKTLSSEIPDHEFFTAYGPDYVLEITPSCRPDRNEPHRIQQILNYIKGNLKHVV

Histone deacetylase 11 = target: T3, Histone deacetylase 11 (Homo sapiens, UniProt Q96DB2); test: Inhibition of HDAC11 (unknown origin) measured by fluorometry assay
T3 sequence (Q96DB2 whole entry): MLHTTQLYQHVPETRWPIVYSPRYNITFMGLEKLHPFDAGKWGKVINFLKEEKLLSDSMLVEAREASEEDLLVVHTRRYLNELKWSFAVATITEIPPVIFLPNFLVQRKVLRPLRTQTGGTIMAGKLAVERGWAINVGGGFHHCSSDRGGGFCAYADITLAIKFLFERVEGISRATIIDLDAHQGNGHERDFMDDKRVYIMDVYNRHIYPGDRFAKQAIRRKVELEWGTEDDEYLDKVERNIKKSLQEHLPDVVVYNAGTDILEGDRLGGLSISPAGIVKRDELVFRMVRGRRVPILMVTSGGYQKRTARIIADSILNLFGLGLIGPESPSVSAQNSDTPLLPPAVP

[8] = Solubility of compound in water; assay type: physicochemical
[9] = Metabolic stability in rat liver microsomes assessed as half-life measured upto 6 hrs in presence of NADPH generating system by HPLC-MS/MS analysis; assay type: ADME, Microsome
[10] = Metabolic stability in rat liver microsomes assessed as intrinsic clearance per mg protein measured upto 6 hrs in presence of NADPH generating system by HPLC-MS/MS analysis; assay type: ADME, Microsome; conditions: read-out: CLH
[11] = Metabolic stability in human liver microsomes assessed as half-life measured upto 6 hrs in presence of NADPH generating system by HPLC-MS/MS analysis; assay type: ADME, Microsome
[12] = Metabolic stability in human liver microsomes assessed as intrinsic clearance per mg protein measured upto 6 hrs in presence of NADPH generating system by HPLC-MS/MS analysis; assay type: ADME, Microsome; conditions: read-out: CLH
Tubulin = test: Inhibition of tubulin polymerization in human HeLa cells assessed as microtubule network polymerization after 30 mins by immunofluorescence analysis; assay type: cell-based

GI50 (HCT-116; Homo sapiens, HCT-116): 64.5 nM
SMILES: COc1ccc(N(C)c2cc(C#N)nc3ccccc23)cc1OCC(=O)NO

GI50 (HCT-116; Homo sapiens, HCT-116): 12.5 nM
SMILES: COc1ccc(N(C)c2nc(C)nc3ccccc23)cc1/C=C/C(=O)NOC1CCCCO1 (stereo unspecified)

GI50 (HCT-116; Homo sapiens, HCT-116): 381 nM
SMILES: COc1ccc(N(C)c2cc(C#N)nc3ccccc23)cc1OCCCC(=O)NO

GI50 (HCT-116; Homo sapiens, HCT-116): 24.6 nM
SMILES: COc1ccc(N(C)c2cc(C#N)nc3ccccc23)cc1I

GI50 (HCT-116; Homo sapiens, HCT-116): 1.5 nM
SMILES: COc1ccc(N(C)c2nc(C#N)nc3ccccc23)cc1/C=C/C(=O)NO

GI50 (HCT-116): 35 nM | IC50 (K562 [1]): 260 nM | IC50 (K562 [2]): 90 nM | IC50 (MIA PaCa-2): 200 nM | IC50 (SK-OV-3): 100 nM | IC50 (A549): 80 nM | IC50 (MCF7): 54 nM | IC50 (MDA-MB-231): 91 nM | IC50 (HT-29 [3]): 55 nM
SMILES: CC(/C=C/C(=O)NO)=C\[C@@H](C)C(=O)c1ccc(N(C)C)cc1 [TRICHOSTATIN]
IC50 (NCI-N87): 58 nM

GI50 (HCT-116; Homo sapiens, HCT-116): 0.6 nM | IC50 (K562 [1]): 0.38 nM | IC50 (K562 [2]): 1.63 nM | IC50 (MIA PaCa-2): 1.1 nM | IC50 (SK-OV-3): 0.3 nM | IC50 (A549): 0.51 nM | IC50 (MCF7): 0.8 nM | IC50 (MDA-MB-231): 0.55 nM | IC50 (HT-29 [3]): 0.66 nM | IC50 [7]: 2000 nM | IC50 (Histone deacetylase 8): 280 nM | IC50 (Histone deacetylase 11): 3200 nM | solubility [8]: 65 µg/mL (≈ 178 µM) | half-life [9]: 3.53 h | microsomal CLint [10]: 3.27 µL/min/mg | half-life [11]: 9 h | microsomal CLint [12]: 1.28 µL/min/mg
SMILES: COc1ccc(N(C)c2nc(C)nc3ccccc23)cc1/C=C/C(=O)NO
IC50 (NCI-N87): 0.17 nM | Activity (HT-29 [4]): Dde | Activity (HT-29 [5]): >95% | Activity (HT-29 [6]): Active

GI50 (HCT-116; Homo sapiens, HCT-116): 30.3 nM
SMILES: COc1ccc(N(C)c2cc(C)nc3ccccc23)cc1/C=C/C(=O)NOC1CCCCO1 (stereo unspecified)

GI50 (HCT-116; Homo sapiens, HCT-116): 4.91 nM
SMILES: COc1ccc(N(C)c2cc(C#N)nc3ccccc23)cc1/C=C/C(=O)NOC1CCCCO1 (stereo unspecified)

SMILES: COc1ccc(/C=C\c2cc(OC)c(OC)c(OC)c2)cc1O [COMBRETASTATIN A4]
IC50 (NCI-N87): 11 nM | GI50 (HCT-116; Homo sapiens, HCT-116): 2.4 nM | IC50 (K562 [2]): 25 nM | IC50 (MIA PaCa-2): 8 nM | IC50 (SK-OV-3): 6 nM | IC50 (MCF7): 172 nM | IC50 (HT-29 [3]): > 10000 nM

GI50 (HCT-116; Homo sapiens, HCT-116): 34.4 nM
SMILES: COc1ccc(N(C)c2cc(C#N)nc3ccccc23)cc1/C=C/CCC(=O)NO

GI50 (HCT-116; Homo sapiens, HCT-116): 2600 nM | IC50 (K562 [1]): 2010 nM | IC50 (K562 [2]): 2200 nM | IC50 (MIA PaCa-2): > 20000 nM | IC50 (A549): 2000 nM | IC50 (MCF7): 2980 nM | IC50 (HT-29 [3]): > 10000 nM
SMILES: COc1ccc(Cn2ccc3ccc(C(=O)NO)cc32)cc1
IC50 (NCI-N87): 1500 nM

GI50 (HCT-116; Homo sapiens, HCT-116): 10.1 nM
SMILES: C=C(c1ccc(OC)c(/C=C/C(=O)NO)c1)c1cc(C)nc2ccccc12

SMILES: C=C(c1ccc(OC)c(O)c1)c1cc(OC)c(OC)c(OC)c1
IC50 (NCI-N87): 14 nM | GI50 (HCT-116; Homo sapiens, HCT-116): 2.2 nM | IC50 (K562 [2]): 3 nM | IC50 (SK-OV-3): 5 nM | IC50 (A549): 12 nM | IC50 (Tubulin): 6 nM | half-life [9]: 4.24 h | microsomal CLint [10]: 2.73 µL/min/mg | half-life [11]: 12 h | microsomal CLint [12]: 0.96 µL/min/mg

IC50 (HCT-116; Homo sapiens, HCT-116, 72 h): 1.5 nM | IC50 (K562 [1]): 1.6 nM | IC50 (K562 [2]): 1.4 nM | IC50 (MIA PaCa-2): 6 nM | IC50 (SK-OV-3): 4 nM | IC50 (A549): 2 nM | IC50 (MCF7): 2.2 nM | IC50 (MDA-MB-231): 4.6 nM | IC50 (HT-29 [3]): 2 nM | half-life [9]: 4.42 h | microsomal CLint [10]: 2.57 µL/min/mg | half-life [11]: 14 h | microsomal CLint [12]: 0.83 µL/min/mg
SMILES: C=C(c1ccc(OC)c(/C=C/C(=O)NO)c1)c1cc(OC)c(OC)c(OC)c1
IC50 (NCI-N87): 3.2 nM

GI50 (HCT-116; Homo sapiens, HCT-116): 25.2 nM
SMILES: COc1ccc(N(C)c2cc(C#N)nc3ccccc23)cc1C#CCCC(=O)NO

GI50 (HCT-116; Homo sapiens, HCT-116): 6.3 nM
SMILES: COc1ccc(N(C)c2cc(C)nc3ccccc23)cc1/C=C/C(=O)NO
